The test system of test [1] is mesothelial cells. The experiment in a line: Longterm (24 hours) exposure model, PDF diluted 1:1 with medium: viability by LDH release. The note with it: PDF diluted 1:1 with M199, L-alanyl-L-glutamine 0.5 and 10.0 g/L, compared to standard PDF. In kind it is cell-based. An excerpt:
(§1) The acute recovery experimental setting as described for glutamine as a proof of principle for the cytoprotective PDF, is best representative for the early toxic effects of PDF, mainly due to low pH and lactate as major culprits. Alternate models such as a longterm exposure model to unused PDF diluted 1:1 with normal culture medium are better accepted tools to assess effects of cellular processes that occur in the peritoneum upon more extended exposure to PDF, as occurs in clinical PD. […] Additional control cultures are kept in pure regular culture media at 37° C. for the same time. At the end of the study, cell viability and protein expression are assessed in parallel cultures to identify the cytoprotective PDF.

Test [2] concerns HSP-72. The experiment in a line: Longterm (24 hours) exposure model, PDF diluted 1:1 with medium: HSP-72 expression. The note with it: PDF diluted 1:1 with M199, L-alanyl-L-glutamine 0.5 and 10.0 g/L, compared to standard PDF. In kind it is cell-based.
Description: as §1

The test system of test [3] is HSP-72. The experiment in a line: In-vivo acute rat model of PD: HSP-72 expression in harvested mesothelial cells. The arrangement: species or system Sprague Dawley rats. The note with it: 4 hr dwell, L-glutamine supplemented PDF vs standard PDF. As for the experimental part:
After introduction of anaesthesia (ketamine 100 mg/kg and 5 mg/kg xylazine, intramusculary) the animals were placed on a heated small animal operating table. A sterile catheter was inserted into the peritoneal cavity through a small abdominal midline incision and 35 ml of test fluid (PDF with or without addition of L-glutamine at 4-10 mM) were slowly infused in 45-60 secs. The animal was gently moved, a small volume of peritoneal fluid aspirated, the catheter withdrawn and the abdomen sutured. Animals awoke within 20 minutes after the procedure and had free access to food and tap water. At 4 hours after the intraperitoneal injection animals were again anaesthetized, another small volume of peritoneal fluid was aspirated and animals were sacrificed by cardial puncture and exsanguinations. Thereafter, the abdomen was opened by a midline incision and the complete intraperitoneal fluid gently collected. The volumes of the collected fluids were recorded, and total cell count and differential counts at the two time pints (0 and 4 hours) were assessed by hand count after giemsa staining and by machine count by a coulter counter. […]
Western blotting: Protein content of mesothelial cell harvests was determined by Bradford assay (BioRad) and equal amounts of protein samples (5 μg/lane) were separated by standard SDS-PAGE using a Pharmacia Multiphore II unit. […]

Test [4] relates to peritoneal membrane. Description: In-vivo acute rat model of PD: barrier function of the peritoneal membrane. The arrangement: species or system Sprague Dawley rats. The note with it: 4 hr dwell.
Description: (§2) The studies were carried out on adult male inbred Sprague Dawley rats (average weight 310 g).
After introduction of anaesthesia (ketamine 100 mg/kg and 5 mg/kg xylazine, intramusculary) the animals were placed on a heated small animal operating table. A sterile catheter was inserted into the peritoneal cavity through a small abdominal midline incision and 35 ml of test fluid (PDF with or without addition of L-glutamine at 4-10 mM) were slowly infused in 45-60 secs. The animal was gently moved, a small volume of peritoneal fluid aspirated, the catheter withdrawn and the abdomen sutured. Animals awoke within 20 minutes after the procedure and had free access to food and tap water. At 4 hours after the intraperitoneal injection animals were again anaesthetized, another small volume of peritoneal fluid was aspirated and animals were sacrificed by cardial puncture and exsanguinations. Thereafter, the abdomen was opened by a midline incision and the complete intraperitoneal fluid gently collected. The volumes of the collected fluids were recorded, and total cell count and differential counts at the two time pints (0 and 4 hours) were assessed by hand count after giemsa staining and by machine count by a coulter counter. Total number of detached mesothelial cells was then computed for each rat.
For testing the barrier function of the peritoneal membrane, creatinine, glucose and total protein were measured in dialysate (D) samples and creatinine in plasma (P) at the end of the protocol. D/P ratios for creatinine and D/D0 ratios for glucose were computed. Peritoneal loss of protein was calculated as final dialysate concentration×final volume.
Test [5] relates to mesothelial cells. Description: In-vivo acute rat model of PD: mesothelial cell detachment. Set-up: species or system Sprague Dawley rats. The note with it: 4 hr dwell, intraperitoneal PDF with or without L-glutamine, mean+/-S.D.
Description: as §2
After introduction of anaesthesia (ketamine 100 mg/kg and 5 mg/kg xylazine, intramusculary) the animals were placed on a heated small animal operating table. A sterile catheter was inserted into the peritoneal cavity through a small abdominal midline incision and 35 ml of test fluid (PDF with or without addition of L-glutamine at 4-10 mM) were slowly infused in 45-60 secs. The animal was gently moved, a small volume of peritoneal fluid aspirated, the catheter withdrawn and the abdomen sutured. Animals awoke within 20 minutes after the procedure and had free access to food and tap water. At 4 hours after the intraperitoneal injection animals were again anaesthetized, another small volume of peritoneal fluid was aspirated and animals were sacrificed by cardial puncture and exsanguinations. Thereafter, the abdomen was opened by a midline incision and the complete intraperitoneal fluid gently collected. The volumes of the collected fluids were recorded, and total cell count and differential counts at the two time pints (0 and 4 hours) were assessed by hand count after giemsa staining and by machine count by a coulter counter. Total number of detached mesothelial cells was then computed for each rat. […]
For test [6], the system named is Immortalized human mesothelial cells (Met5A, ATCC CRL-9444). The experiment in a line: In-vitro model of PD: viability by LDH release. In kind it is cell-based. The note with it: for LDH release: % of negative control, mean+/-S.D. As to the method: Immortalized human mesothelial cells (Met5A, ATCC CRL-9444) were cultured in M199/MCDB 105 medium (1:1) supplemented with 100 units/ml penicillin, 100 µg/ml streptomycin and 10% FCS. Cultures were kept in 75 cm^2 tissue culture flasks (Falcon, Becton Dickinson, Oxnard, Calif.) at 37° C. in 5% CO2 and passaged by regular trypsinization. Medium was changed every two to three days. Confluence was reached on average after 6 to 7 days.
Confluent cultures were then exposed for 120 minutes to standard glucose-monomer and acidic lactate-based PDF (Fresenius 2, Bad Homburg, Germany), containing 1.5% anhydrous dextrose at pH 5.5, with or without addition of cytoprotective compound (glutamine at 4 to 20 mM) and allowed to recover in regular growth medium for 16 hours. Control cultures were kept in regular culture media at 37° C. and underwent “sham media changes”, i.e.: exposure to PDF was paralleled by exposure to control medium.
Viability of cells was assessed by lactate dehydrogenase (LDH) analyses. Fifty μl aliquots of supernatants were removed after the described experimental setup and kept on 4° C. until analyzed within 48 hours. Measurements were performed in duplicates with Sigma TOX-7 LDH Kit according to the manufacturer instructions. LDH efflux was calculated as percentage of LDH values measured in each negative control experiment. Induction of HSP was assessed in parallel cultures as described below.

Test [7] has as its system HSP-72. The experiment in a line: In-vitro model of PD: HSP-72 expression by Western blotting. Format: cell-based, human. As to the method:
Immortalized human mesothelial cells […], ATCC CRL-9444) were cultured in M199/MCDB 105 medium (1:1) supplemented with 100 units/ml penicillin, 100 µg/ml streptomycin and 10% FCS. Cultures were kept in 75 cm^2 tissue culture flasks (Falcon, Becton Dickinson, Oxnard, Calif.) at 37° C. in 5% CO2 and passaged by regular trypsinization. Medium was changed every two to three days. Confluence was reached on average after 6 to 7 days. Confluent cultures were then exposed for 120 minutes to standard glucose-monomer and acidic lactate-based PDF (Fresenius 2, Bad Homburg, Germany), containing 1.5% anhydrous dextrose at pH 5.5, with or without addition of cytoprotective compound ([…] to 20 mM) and allowed to recover in regular growth medium for 16 hours. Control cultures were kept in regular culture media at 37° C. and underwent “sham media changes”, i.e.: exposure to PDF was paralleled by exposure to control medium. Western blotting: Protein content of mesothelial cell harvests was determined by Bradford assay (BioRad) and equal amounts of protein samples (5 μg/lane) were separated by standard SDS-PAGE using a Pharmacia Multiphore II unit. Size-fractionated proteins were transferred to PVDF membranes by semi-dry transfer in a Pharmacia Multiphore II Novablot unit. Membranes were blocked in 5% dry milk in TBS-Tween (10 mM Tris, 150 mM NaCl, 0.05% Tween 20, pH 8.0). Membranes were incubated with the HSP-72 antibody (SPA 810, Stressgen, B.C., Canada). Detection was accomplished by incubation with secondary, peroxidase-coupled antibodies (Sigma, USA) and enhanced chemiluminescence (ECL) using ECL Western blotting analysis system and protocols (Renaissance, NEN-Life Science Products, Boston, Mass., USA). Densitometry was performed with image analysis software (Molecular Analyst software, BioRad, USA). Differential expression of HSP-72 was derived from the ratio of specific signals in the linear range of the protein/signal intensity relationship, normalized to an internal standard, and compared between parallel experiments.
In general terms: Immunoblotting shows a protein as a band on a membrane.

Molecules are shown by their SMILES. Where a SMILES comes first, the peptide text is derived from it.

With `C[C@H](N)C(=O)N[C@@H](CCC(N)=O)C(=O)O` [L-alanyl-L-glutamine] (H-Ala-Gln-OH), the “Viability assessed by LDH release” value in test [1] was “preserved viability”. In addition, the HSP-72 expression result in test [2] was “increased”.
With `NC(=O)CC[C@H](N)C(=O)O` [L-glutamine], the “HSP-72 expression in rat mesothelial cells” value in test [3] is “overexpression of HSP-72”. For the same compound, the D/Do glucose in test [4] is given as 0.469+/−0.04. Further, the D/P creatinine in test [4] is listed as 0.375+/−0.11. This compound yielded a Net ultrafiltration in test [4] of 5.4 ± 2.7 mL. Further, the “Protein loss into the dialysate effluate” value in test [4] (final dialysate concentration x final volume) stood at 65 ± 4 mg. For the same compound, the Mesothelial cell detachment in test [5] is reported as 38+/−38 cells. Besides, the LDH release in test [6] (control conditions (no PDF)) is 91+/−7%; in test [6] (during exposure to PDF for 120 min, 16 hours recovery) it was 190+/−19%. For the same compound, in test [6] (control conditions, L-glutamine up to 20 mM), the “Viability (LDH release)” value was “unchanged viability”. The HSP-72 expression in test [7] (control conditions (no PDF), relative to control, mean+/-S.D.) is on record as 234+/−221%; in test [7] (control conditions, L-glutamine 8 and 10 mM) it was “increased”; in test [7] (during exposure to PDF for 120 min, relative to control, mean+/-S.D.) it was 1895+/−1928%.

The values above are taken from patent US11534475B2, “Carbohydrate-based peritoneal dialysis fluid comprising glutamine residue” (ZYTOPROTEC GmbH, priority 2007, dated 2022).
